In patent US20030099600A1, “Metalloproteinase inhibitors for the treatment of respiratory diseases” (priority 2000, published 2003):

Columns and labels:
TIMP-1 [1] = experiment: Lung tissue study: TIMP-1 released by human lung tissue in vitro (ELISA); type: cell-based; conditions: 24 hours; for TIMP-1 % of IL-1: 100 U/ml IL-1 stimulated; for TIMP-1 % of control: unstimulated fragments
Experimental: (§1) This study was done to assess the effects of doxycycline on the release of matrix metalloproteinases by human lung tissue in vitro.
(§2) On the following day, 2-3 fragments (total weight 50 mg) were placed in 0.8 ml of culture buffer and 0.1 ml of doxycycline (to give a final concentration of 10^−4-10^−8M) or a buffer control was added.
(§3) After one hours incubation at 37° C., the fragments were treated with either 0.1 ml of either a buffer control (unstimulated fragments) or 1000 U/ml interleukin-1 (final concentration of 100 U/ml IL-1). The fragments were then incubated for 24 hours and the supernatant recovered; the tissue was weighed and stored at −70° C.
(§4) The MMPs and TIMPs released into the supematant were measured using commercial ELISAs (Amersham); values were expressed as ng of MMP/TIMP per mg of lung tissue.

TIMP-1 [2] = experiment: Human study in COPD subjects: TIMP-1 levels (ELISA); type: in vivo; conditions: for TIMP-1 % of control: capsules 50, 100, 200 mg ascending, 3 days each, 4-day wash out
Experimental: (§5) This was an open-label, ascending dose, cross-over study. Suitable subjects with chronic obstructive pulmonary disease (COPD) had their respiratory function assessed at baseline and provided sputum and blood for MMP and doxycycline levels. They then received 50 mg, 100 mg and 200 mg of doxycycline capsules for a period of 3 days in ascending order. At the end of each treatment period a further assessment of respiratory function was performed, and a sputum and blood sample was analysed for MMP, TIMP-1 and doxycycline levels. There was a 4-day wash out period between each treatment period of the study. The MMPs and TIMPs released were measured using commercial ELISAs as detailed above for the lung tissue study.

MMP-9 [3] = experiment: Human study in COPD subjects: MMP-9 levels (ELISA); type: in vivo; conditions: for MMP-9 % of control: capsules 50, 100, 200 mg ascending, 3 days each, 4-day wash out
Experimental: as §5

[4] = oral route; cited from earlier work
MMP-9 [5] = experiment: Lung tissue study: MMP-9 released by human lung tissue in vitro (ELISA); type: cell-based; conditions: 24 hours; for MMP-9 % of IL-1: 100 U/ml IL-1 stimulated; for MMP-9 % of control: unstimulated fragments
Experimental: as §1, §2, §3, §4

MMP-2 = experiment: Lung tissue study: MMP-2 released by human lung tissue in vitro (ELISA); type: cell-based; conditions: 24 hours; for MMP-2 % of IL-1: 100 U/ml IL-1 stimulated; for MMP-2 % of control: unstimulated fragments
Experimental: as §1, §2, §3, §4
MMP-2 levels are analysed by Elisa plates (Code No. RPN2617) from Amersham Pharmecia Biotech UK Limited, Amersham Place, Little Chalfont, BUCKS HP7 9NA.
(§6) The Elisa is run as per manufacturer's instructions.
This Elisa is specific for proMMP-2; recognising free proMMP-2 and MMP-2 complexed to TIMP-2, but not the active form of MMP-2. No cross-reactivity with MMP-1, 3, 7, 8, 9 and MT1-MMP.

MMP-1 = experiment: Lung tissue study: MMP-1 released by human lung tissue in vitro (ELISA); type: cell-based; conditions: 24 hours; for MMP-1 % of IL-1: 100 U/ml IL-1 stimulated; for MMP-1 % of control: unstimulated fragments
Experimental: as §1, §2, §3, §4
MMP-1 levels are analysed by Elisa plates (Code No. RPN2610) from Amersham Pharmacia Biotech UK Limited, Amersham Place, Little Chalfont, BUCKS HP7 9NA.
as §6
This Elisa is specific for total MMP-1; recognising pro MMP-1, active MMP-1 and MMP-1/TIMP-1 complex.

[6] = route of administration that avoids first-pass metabolism; cited from earlier work
[7] = Mean of study days 4, 8, 11, 15, 18, COPD subjects

**Q.** Which “TIMP-1 % of IL-1” value (TIMP-1 [1]; 10^-4 M) does the source give for `C[C@H]1c2cccc(O)c2C(=O)C2=C(O)[C@]3(O)C(=O)C(C(N)=O)=C(O)[C@@H](N(C)C)[C@@H]3[C@@H](O)[C@@H]21` [doxycycline] here?
**A.** The value was 75.47%.

**Q.** What about the “TIMP-1 % of control” value (TIMP-1 [1]; 10^-4 M) of the same molecule?
**A.** The value was 44.49%.

**Q.** And the “TIMP-1 % of IL-1” value (TIMP-1 [1]; 10^-6 M)?
**A.** Its value is 508.92%.

**Q.** What about the “TIMP-1 % of control” value (TIMP-1 [1]; 10^-6 M) of the same molecule?
**A.** The value was 182.40%.

**Q.** And the “TIMP-1 % of IL-1” value (TIMP-1 [1]; 10^-8 M)?
**A.** The value was 461.92%.

**Q.** And the “TIMP-1 % of control” value (TIMP-1 [1]; 10^-8 M)?
**A.** The value was 172.02%.

**Q.** And the “TIMP-1 % of control” value (TIMP-1 [2]; Day of Study 4, COPD subjects)?
**A.** Its value is 116.24%.

**Q.** What about the “TIMP-1 % of control” value (TIMP-1 [2]; Day of Study 15, COPD subjects) of the same molecule?
**A.** Its value is 974.24%.

**Q.** And the “TIMP-1 % of control, Mean” value (TIMP-1 [2]; [7])?
**A.** The value was 978.67%.

**Q.** And the “increase in TIMP-1” value (TIMP-1 [2]; human patient study)?
**A.** The value was 10 fold.

**Q.** What about the “upregulation of TIMP-1 in COPD sputum, % of untreated levels” value (TIMP-1 [2]; repeated dosing at 100 mg once daily) of the same molecule?
**A.** The value was “about 1000%”.

**Q.** And the “MMP-9 % of control” value (MMP-9 [3]; Day of Study 4, COPD subjects)?
**A.** The value was 39.43%.

**Q.** What about the “MMP-9 % of control” value (MMP-9 [3]; Day of Study 8, COPD subjects) of the same molecule?
**A.** The value was 12.85%.

**Q.** What about the “MMP-9 % of control” value (MMP-9 [3]; Day of Study 11, COPD subjects) of the same molecule?
**A.** The value was 29.17%.

**Q.** And the “MMP-9 % of control” value (MMP-9 [3]; Day of Study 15, COPD subjects)?
**A.** The value was 22.41%.

**Q.** And the “MMP-9 % of control” value (MMP-9 [3]; Day of Study 18, COPD subjects)?
**A.** Its value is 29.03%.

**Q.** And the “MMP-9 % of control, Mean” value (MMP-9 [3]; [7])?
**A.** Its value is 26.58%.

**Q.** And the “reduction in MMP-9 activity” value (MMP-9 [3]; human patient study)?
**A.** Its value is 73%.

**Q.** What about the protein binding [4] of the same molecule?
**A.** The protein binding was “very highly protein-bound”.

**Q.** And the “MMP-9 % of IL-1” value (MMP-9 [5]; 10^-4 M)?
**A.** The value was 51.04%.

**Q.** And the “MMP-9 % of control” value (MMP-9 [5]; 10^-4 M)?
**A.** Its value is 39.36%.

**Q.** And the “MMP-9 % of IL-1” value (MMP-9 [5]; 10^-6 M)?
**A.** The value was 99.29%.

**Q.** And the “MMP-9 % of control” value (MMP-9 [5]; 10^-6 M)?
**A.** Its value is 116.84%.

**Q.** And the “MMP-9 % of IL-1” value (MMP-9 [5]; 10^-8 M)?
**A.** Its value is 127.04%.

**Q.** And the “MMP-9 % of control” value (MMP-9 [5]; 10^-8 M)?
**A.** Its value is 113.57%.

**Q.** What about the “MMP-2 % of IL-1” value (MMP-2; 10^-4 M) of the same molecule?
**A.** Its value is 49.23%.

**Q.** What about the “MMP-2 % of control” value (MMP-2; 10^-4 M) of the same molecule?
**A.** Its value is 34.34%.

**Q.** What about the “MMP-2 % of IL-1” value (MMP-2; 10^-6 M) of the same molecule?
**A.** The value was 86.86%.

**Q.** What about the “MMP-2 % of control” value (MMP-2; 10^-6 M) of the same molecule?
**A.** The value was 219.33%.

**Q.** And the “MMP-2 % of IL-1” value (MMP-2; 10^-8 M)?
**A.** Its value is 95.75%.

**Q.** And the “MMP-2 % of control” value (MMP-2; 10^-8 M)?
**A.** The value was 101.47%.

**Q.** And the “MMP-1 % of IL-1” value (MMP-1; 10^-4 M)?
**A.** The value was 14.75%.

**Q.** What about the “MMP-1 % of control” value (MMP-1; 10^-4 M) of the same molecule?
**A.** Its value is 24.05%.

**Q.** And the “MMP-1 % of IL-1” value (MMP-1; 10^-6 M)?
**A.** The value was 61.47%.

**Q.** And the “MMP-1 % of control” value (MMP-1; 10^-6 M)?
**A.** Its value is 84.10%.

**Q.** And the “MMP-1 % of IL-1” value (MMP-1; 10^-8 M)?
**A.** Its value is 51.87%.

**Q.** And the “MMP-1 % of control” value (MMP-1; 10^-8 M)?
**A.** Its value is 76.50%.

**Q.** What about the “lung concentration relative to the level in plasma” value [6] of the same molecule?
**A.** The value was “up to 10 times”.
